What was measured:
[1] = target: T1, Vitamin D3 receptor (Homo sapiens, UniProt P11473); assay: Effective concentration required for inhibition of Vitamin D3 receptor
T1 sequence (P11473 whole entry): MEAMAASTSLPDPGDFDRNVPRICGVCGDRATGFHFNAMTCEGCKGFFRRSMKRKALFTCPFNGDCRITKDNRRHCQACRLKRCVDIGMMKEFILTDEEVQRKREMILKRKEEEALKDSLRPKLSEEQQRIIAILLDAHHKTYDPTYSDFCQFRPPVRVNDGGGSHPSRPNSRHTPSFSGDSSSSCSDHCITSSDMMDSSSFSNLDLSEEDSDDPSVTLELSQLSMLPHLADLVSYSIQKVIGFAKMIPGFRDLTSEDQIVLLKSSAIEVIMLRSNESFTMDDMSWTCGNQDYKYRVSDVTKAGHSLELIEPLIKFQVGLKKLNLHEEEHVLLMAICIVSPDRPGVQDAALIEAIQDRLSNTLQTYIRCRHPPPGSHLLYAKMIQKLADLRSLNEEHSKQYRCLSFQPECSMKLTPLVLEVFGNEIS

[2] = target: T2, Vitamin D3 receptor (Homo sapiens) (UniProt P11473); assay: Binding of compound towards human Vitamin D3 receptor was determined in vitro
T2 sequence (whole entry): T1 sequence (P11473 whole entry)

C=C1/C(=C\C=C2/CCC[C@]3(C)[C@@H]([C@H](C)/C=C/[C@@H](O)C4(/C=C/C(=O)OCC)CC4)CC[C@@H]23)C[C@@H](O)C[C@@H]1O was tested, and the EC50 [1] was 0.35 nM.
In the case of C=C1/C(=C\C=C2/CCC[C@]3(C)[C@@H]([C@H](C)/C=C/C=C/C(O)(CC)CC)CC[C@@H]23)C[C@@H](O)C[C@@H]1O, the Binding [2] is reported as 80%.
With C=C1/C(=C\C=C2/CCC[C@]3(C)[C@@H]([C@H](C)/C=C/[C@@H](O)C4(C(=O)OCCCC)CC4)CC[C@@H]23)C[C@@H](O)C[C@@H]1O the EC50 [1] was 0.4 nM.
C=C1/C(=C\C=C2/CCC[C@]3(C)[C@@H]([C@H](C)/C=C/[C@@H](O)C4CC4)CC[C@@H]23)C[C@@H](O)C[C@@H]1O showed a Binding [2] of 90%.
